The values below come from patent US11795173B1, “Substituted pyridines as PARP1 inhibitors” (Xinthera, Inc., priority 2022, dated 2023).

One may read the EC50 as the concentration giving half of the maximal effect. Usually efflux ratio stands for a quotient of directional permeabilities that is used to spot active efflux. For orientation: IC50 means the concentration that inhibits the measured activity by half. Read a high IC50 as weaker potency in that assay.

One data set has as its system DLD-1 parental cells. The experiment in a line: Cell growth inhibition assay (CellTiter-Glo), DLD-1 parental. In kind it is cell-based. The following applies: Homo sapiens, DLD-1, 168 h; cell viability, CellTiter Glo 2.0, 7 days. An excerpt: (§1) The objective of this study is to evaluate the effect of compound disclosed herein on cell proliferation through the cell viability assay in DLD-1 BRCA2(−/−) and parental isogenic pair and MDA-MB-436 (mutated BRCA1) cell lines. The CellTiter-Glo (CTG) based cell viability assay is designed to determine the number of viable cells in the culture because of compound effect, by quantifying ATP, which indicates the presence of metabolically active cells.
(§2) DLD-1 BRCA2(−/−) and parental isogenic pair were cultured in RPMI 1640 supplemented with 10% fetal bovine serum (FBS), and MDA-MB-436 cells were cultured in DMEM supplemented with 10% FBS. Both are culture at 37° C. with 5% CO2. Invention compounds were distributed to the 384 well plate (Corning, 3764) using Echo acoustic liquid handler to form a 1:3 serially diluted final concentration with top dose of 10 or 30 μM. The cells were seeded into the plate in the density of 50 cells/well (DLD-1 parental), 200 cells/well (DLD-1 BRCA2−/−), or 500 cells/well (MDA-MB-436). After a short spun, the cells were cultured in a well moisturized incubator at 37° C. with 5% CO2 for 7 days without disturbance. The cell viability was measured by CellTiter Glo 2.0 assay kit (Promega, G9243), and growth inhibition rate was calculated and plotted against final compound concentration, and the data were fitted in Xfit to generate IC50.
For orientation: In ATP-based viability assays light output follows the ATP content of the culture.

A further data set deals with BCRP (Homo sapiens (Human), UniProt Q9UNQ0). The data set is described as follows: In vitro human transporter efflux, MDCKII cells expressing BCRP. In kind it is in vitro ADME. The following applies: for Papp A→B at 2 h, 10 μM: pH 7.4, apical-to-basolateral, pH7.4, read-out: BCRP Papp AB; for Papp A→B at 2 h, 10 μM / Papp B→A at 2 h, 10 μM: 2-hour incubation; for Papp B→A at 2 h, 10 μM: pH 7.4, basolateral-to-apical, pH7.4, read-out: BCRP Papp BA; for efflux ratio at 2 h, 10 μM: pH 7.4, efflux ratio Papp BA/Papp AB. On the procedure: (§3) Madin-Darby canine kidney (MDCKII) cells expressing either MDR1 or BCRP were seeded onto Corning HTS Transwell® 96-well polycarbonate permeable (0.4 μm pore) supports at a density of 545,000 cells/cm^2. Cells were incubated for 4-8 days prior to assay, and monolayer integrity was assessed by measuring transepithelial electrical resistance (TEER). […] The final organic solvent concentration was 0.5% (v/v). Bidirectional (apical-to-basolateral and basolateral-to-apical) flux of the test and reference compounds was determined over a 2-hour incubation at 37° C. and 5% CO2 with a relative humidity of 95%. At the end of the incubation, samples from the apical and basolateral side were taken and then precipitated with acetonitrile containing internal standard. After centrifugation at 3200×g, supernatants were diluted 1:1 (v/v) with water and subjected to analysis via HPLC-MS/MS.
BCRP, sequence (Q9UNQ0 whole entry): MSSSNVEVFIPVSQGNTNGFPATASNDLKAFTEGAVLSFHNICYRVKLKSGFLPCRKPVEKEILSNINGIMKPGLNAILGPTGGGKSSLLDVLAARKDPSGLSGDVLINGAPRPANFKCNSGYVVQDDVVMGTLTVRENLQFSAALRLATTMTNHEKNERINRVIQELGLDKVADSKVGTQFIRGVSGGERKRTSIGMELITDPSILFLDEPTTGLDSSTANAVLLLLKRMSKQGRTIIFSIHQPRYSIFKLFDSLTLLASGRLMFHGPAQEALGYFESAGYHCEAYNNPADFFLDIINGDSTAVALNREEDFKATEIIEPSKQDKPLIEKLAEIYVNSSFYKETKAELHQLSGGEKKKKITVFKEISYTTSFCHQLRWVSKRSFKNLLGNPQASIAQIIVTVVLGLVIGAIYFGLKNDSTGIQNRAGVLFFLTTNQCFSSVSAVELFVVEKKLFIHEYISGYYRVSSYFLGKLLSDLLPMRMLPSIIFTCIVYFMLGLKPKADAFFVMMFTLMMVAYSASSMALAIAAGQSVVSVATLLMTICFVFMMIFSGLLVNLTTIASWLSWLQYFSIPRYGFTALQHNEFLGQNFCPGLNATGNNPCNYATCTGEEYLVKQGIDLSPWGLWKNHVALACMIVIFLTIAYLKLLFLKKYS
(§4) Apparent permeability (Papp, ×10^−6 cm/s) was calculated for all transport assays using the following equation: […]
(§5) Efflux ratio was determined by calculating the ratio of the Papp in the basolateral-to-apical direction to the Papp in the apical-to-basolateral direction using the following equation: […]

Another data set has as its target MDR1 (Homo sapiens (Human), UniProt P08183). The experiment in a line: In vitro human transporter efflux, MDCKII cells expressing MDR1. In kind it is in vitro ADME. To be noted: for Papp A→B at 2 h, 10 μM: MDCK-MDR1, pH 7.4, apical-to-basolateral, pH7.4, read-out: MDCK-MDR1 Papp AB; for Papp A→B at 2 h, 10 μM / Papp B→A at 2 h, 10 μM: 2-hour incubation; for Papp B→A at 2 h, 10 μM: MDCK-MDR1, pH 7.4, basolateral-to-apical, pH7.4, read-out: MDCK-MDR1 Papp BA; for efflux ratio at 2 h, 10 μM: MDCK-MDR1, pH 7.4, efflux ratio Papp BA/Papp AB. On the procedure: as §3, §4, §5

Another data set has as its target PARP2 (Homo sapiens (Human), UniProt Q9UGN5). The experiment in a line: Biochemical fluorescence polarization (FP) assay, PARPi-FL displacement, PARP2. In kind it is binding. To be noted: 20 nM protein, 3 nM PARPi-FL, 4 h at room temperature. As to the method:
(§6) To characterize our compounds, we utilized an assay measuring the displacement of a commercially available fluorescently labeled PARP 1/2 inhibitor (PARPi-FL, Tocris Biosciences, #6461) as exemplified in assays performed in WO2014/064149 and WO2021/013735A1. The assay was performed utilizing the following method: Compounds were dissolved in DMSO an Echo550 liquid handler was utilized to make serial dilations in the desired concentration range in Optiplate-384F plates. 100% DMSO was used for the high (with protein) and low (without protein) control samples. 20 nL of compound or DMSO alone was added to individual assay plate wells. […] The PARPi-FL was then added at a final concentration of 3 nM. The assay plate is centrifuged at 1000 rpm for 1 min and incubated for 4 h at room temperature. […] XLFit (equation 201) is used to calculate a reported IC50 for each compound.

A further data set concerns the target PARP1 (Homo sapiens (Human), UniProt P09874). The experiment in a line: Biochemical fluorescence polarization (FP) assay, PARPi-FL displacement, PARP1. The following applies: 20 nM protein, 3 nM PARPi-FL, 4 h at room temperature. In kind it is binding. As to the method:
as §6

The next data set has as its system DLD-1 BRCA2(−/−) cells. The data set is described as follows: Cell growth inhibition assay (CellTiter-Glo), DLD-1 BRCA2(−/−). In kind it is cell-based. To be noted: Homo sapiens, DLD-1, 168 h; cell viability, CellTiter Glo 2.0, 7 days. On the procedure:
The objective of this study is to evaluate the effect of compound disclosed herein on cell proliferation through the cell viability assay in DLD-1 BRCA2(−/−) and parental isogenic pair and MDA-MB-436 (mutated BRCA1) cell lines.
as §2, with “Invention compounds were distributed to the 384 well plate (Corning, 3764) using Echo acoustic liquid handler to form a 1:3 serially diluted final concentration with top dose of 10 or 30 μM.” left out

Data set [1] concerns MDA-MB-436 (mutated BRCA1) cells. The data set is described as follows: Cell growth inhibition assay (CellTiter-Glo), MDA-MB-436. To be noted: Homo sapiens, MDA-MB-436, 168 h; cell viability, CellTiter Glo 2.0, 7 days. In kind it is cell-based.
Excerpt: as §1, §2

A short description of data set [2]: HLM stability, predicted human hepatic clearance. In kind it is in vitro ADME. The following applies: well-stirred model, 1 μM, 0.5 mg/mL microsomal protein, NADPH. On the procedure:
Working stocks of individual test articles were prepared at a concentration of 100 μM by diluting 10 mM stocks prepared in DMSO 100-fold (v:v) into ACN. Thawed hepatic microsomes were suspended in 100 mM potassium phosphate buffer, pH 7.4 to a microsomal protein concentration of 0.562 mg/mL. Diluted microsomes were combined with a solution of 10 mM NADPH, and the mixture was pre-warmed to 37° C. for 8 min. Reactions were initiated by addition of the test article working stocks to achieve a final test article concentration of 1 μM. Final microsomal protein and NADPH concentrations were 0.5 mg/mL and 1 mM, respectively. Incubations containing NADPH were run in duplicate. Test article losses mediated by non-CYP mechanisms were evaluated in a parallel set of incubations run in the absence of NADPH. Incubations lacking NADPH consisted of 1 replicate per test article. Following incubation in a 37° C. water bath, aliquots of individual reactions were quenched with cold ACN containing internal standards at […], 15-, 30-, 60-, 90-, and 120-min. Precipitated protein was pelleted via refrigerated centrifugation. Supernatants were diluted into an equal volume of pure water and mixed well prior to analysis via LC-MS/MS. In vitro intrinsic clearances (CLint) in μL/min/mg were determined for each incubation from calculated in vitro half-lives determined using a standard log-linear regression approach. In vitro CLint values were scaled up using the following physiological scaling factors: 40 mg microsomal protein/g human liver and 25.7 g human liver/kg body weight.

Data set [3] is described as follows: hHEP stability, predicted human hepatic clearance. In kind it is in vitro ADME. To be noted: well-stirred model, 0.5×10^6 viable cells/mL. As to the method:
Working stocks of individual test articles were prepared at concentrations of 100 μM by diluting 10 mM stocks prepared in DMSO 100-fold (v:v) into ACN/H2O (50/50, v:v). Human cryopreserved hepatocytes were thawed in a 37° C. water bath in <2 min., suspended in thawing media, and then centrifuged at 100×g for 10 min. Thawing media was aspirated, and pelleted hepatocytes were resuspended into incubation media at 1.5×10^6 cells/mL. Cell viability was determined using an Acridine Orange/Propidium Iodine stain, and hepatocytes were further diluted with incubation media to 0.5×10^6 viable cells/mL. Hepatocyte aliquots of 198 μL were added to wells of a 96-well plate, and test article incubations were initiated by the addition of 2 μL of 100 μM working stocks. Plates were incubated at 37° C. in a 5% CO2 atmosphere at 95% relative humidity on an orbital shaker at 300 rpm. Incubations were performed in duplicate. Following incubation, aliquots of individual reactions were terminated by addition of ACN containing internal standards at 0, 30-, 60-, 90-, 120-, and 240-min. Precipitated protein was pelleted via refrigerated centrifugation. Supernatants were diluted into an equal volume of pure water and mixed well prior to analysis via LC-MS/MS. In vitro intrinsic clearances (CLint) in μL/min/10^6 cells were determined for each incubation from calculated in vitro half-lives determined using a standard log-linear regression approach. In vitro CLint values were scaled up using the following physiological scaling factors: 99×10^6 cells/g human liver and 25.7 g human liver/kg body weight.

MDR1, sequence (P08183 whole entry): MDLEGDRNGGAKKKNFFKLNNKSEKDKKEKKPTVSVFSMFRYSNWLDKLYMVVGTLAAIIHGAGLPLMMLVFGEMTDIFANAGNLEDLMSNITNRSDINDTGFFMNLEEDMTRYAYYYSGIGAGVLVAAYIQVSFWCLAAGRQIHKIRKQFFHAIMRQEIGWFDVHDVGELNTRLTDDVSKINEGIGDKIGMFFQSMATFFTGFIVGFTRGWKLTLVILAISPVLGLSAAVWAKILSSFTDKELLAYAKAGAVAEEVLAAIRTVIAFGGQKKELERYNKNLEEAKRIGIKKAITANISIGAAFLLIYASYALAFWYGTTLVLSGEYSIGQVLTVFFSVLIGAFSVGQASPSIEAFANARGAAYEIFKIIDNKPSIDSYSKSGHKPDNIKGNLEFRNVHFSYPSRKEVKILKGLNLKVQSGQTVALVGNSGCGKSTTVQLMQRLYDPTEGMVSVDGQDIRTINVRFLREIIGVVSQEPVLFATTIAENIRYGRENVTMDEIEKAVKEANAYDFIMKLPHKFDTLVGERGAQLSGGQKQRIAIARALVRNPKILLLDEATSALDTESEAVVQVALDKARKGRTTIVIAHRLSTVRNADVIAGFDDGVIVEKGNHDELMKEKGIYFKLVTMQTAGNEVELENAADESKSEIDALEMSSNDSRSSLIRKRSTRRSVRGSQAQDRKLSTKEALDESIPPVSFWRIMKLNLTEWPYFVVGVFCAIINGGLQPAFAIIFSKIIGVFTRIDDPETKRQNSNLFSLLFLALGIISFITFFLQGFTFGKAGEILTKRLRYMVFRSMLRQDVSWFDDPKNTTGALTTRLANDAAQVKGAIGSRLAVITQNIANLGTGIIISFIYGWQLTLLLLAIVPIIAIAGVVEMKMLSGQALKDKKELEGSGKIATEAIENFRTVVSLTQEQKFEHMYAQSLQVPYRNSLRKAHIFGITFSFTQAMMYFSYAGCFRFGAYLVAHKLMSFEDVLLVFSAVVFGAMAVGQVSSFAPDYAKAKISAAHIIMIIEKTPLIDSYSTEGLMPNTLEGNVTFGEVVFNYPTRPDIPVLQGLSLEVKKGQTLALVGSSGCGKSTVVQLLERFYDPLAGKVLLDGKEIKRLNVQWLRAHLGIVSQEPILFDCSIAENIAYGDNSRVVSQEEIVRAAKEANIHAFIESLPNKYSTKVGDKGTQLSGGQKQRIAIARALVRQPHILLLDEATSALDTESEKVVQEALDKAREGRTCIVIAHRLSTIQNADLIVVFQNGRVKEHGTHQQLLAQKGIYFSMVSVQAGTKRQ
PARP2, sequence (Q9UGN5 whole entry): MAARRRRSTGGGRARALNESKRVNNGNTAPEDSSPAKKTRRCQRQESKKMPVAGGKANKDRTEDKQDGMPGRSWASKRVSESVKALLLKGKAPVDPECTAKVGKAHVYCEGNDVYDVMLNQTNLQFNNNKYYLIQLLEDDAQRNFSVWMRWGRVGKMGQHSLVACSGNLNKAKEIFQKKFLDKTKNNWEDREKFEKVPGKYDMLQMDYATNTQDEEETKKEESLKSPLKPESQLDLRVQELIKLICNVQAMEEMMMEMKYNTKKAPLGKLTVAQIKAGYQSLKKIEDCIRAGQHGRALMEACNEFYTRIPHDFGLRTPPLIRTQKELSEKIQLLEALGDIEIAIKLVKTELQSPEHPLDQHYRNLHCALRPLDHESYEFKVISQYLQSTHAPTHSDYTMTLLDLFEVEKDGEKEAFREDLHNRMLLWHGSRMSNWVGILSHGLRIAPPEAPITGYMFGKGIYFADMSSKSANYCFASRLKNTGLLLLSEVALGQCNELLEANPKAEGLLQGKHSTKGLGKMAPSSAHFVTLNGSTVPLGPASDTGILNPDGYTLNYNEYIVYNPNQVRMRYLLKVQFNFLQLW
PARP1, sequence (P09874 whole entry): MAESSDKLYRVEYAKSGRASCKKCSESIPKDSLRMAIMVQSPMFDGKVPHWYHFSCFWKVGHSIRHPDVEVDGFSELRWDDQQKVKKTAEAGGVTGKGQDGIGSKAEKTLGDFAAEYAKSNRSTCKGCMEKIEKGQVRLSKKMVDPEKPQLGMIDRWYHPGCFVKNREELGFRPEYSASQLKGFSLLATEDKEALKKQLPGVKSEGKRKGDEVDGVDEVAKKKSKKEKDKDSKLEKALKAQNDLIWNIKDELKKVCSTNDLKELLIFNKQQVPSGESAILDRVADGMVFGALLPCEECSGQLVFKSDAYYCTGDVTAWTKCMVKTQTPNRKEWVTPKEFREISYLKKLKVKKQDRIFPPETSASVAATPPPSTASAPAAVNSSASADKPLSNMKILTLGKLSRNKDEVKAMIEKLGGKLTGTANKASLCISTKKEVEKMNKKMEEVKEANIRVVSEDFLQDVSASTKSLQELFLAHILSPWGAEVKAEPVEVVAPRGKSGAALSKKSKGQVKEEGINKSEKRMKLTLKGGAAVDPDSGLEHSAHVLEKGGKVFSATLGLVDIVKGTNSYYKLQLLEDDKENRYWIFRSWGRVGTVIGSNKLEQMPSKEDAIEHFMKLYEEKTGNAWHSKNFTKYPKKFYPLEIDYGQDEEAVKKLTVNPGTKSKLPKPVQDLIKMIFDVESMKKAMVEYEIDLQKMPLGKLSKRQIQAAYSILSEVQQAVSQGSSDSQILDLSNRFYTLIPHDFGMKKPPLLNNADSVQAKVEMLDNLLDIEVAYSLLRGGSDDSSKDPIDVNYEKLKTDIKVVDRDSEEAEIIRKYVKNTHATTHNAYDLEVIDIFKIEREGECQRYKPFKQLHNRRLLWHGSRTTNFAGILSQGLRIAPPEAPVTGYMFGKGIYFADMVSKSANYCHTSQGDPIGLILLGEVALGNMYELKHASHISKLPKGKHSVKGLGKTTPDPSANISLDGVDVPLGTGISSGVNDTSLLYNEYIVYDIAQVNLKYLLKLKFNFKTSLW

On to `[2H]C([2H])([2H])NC(=O)c1ccc(N2CCN(Cc3ccc4c([nH]c(=O)c5ccnn54)c3F)CC2)c(F)n1` [Example 18], for which the values for the EC50 (in the data set with DLD-1 parental cells; in the data set on DLD-1 BRCA2(−/−) cells; in [1]) were greater than 30000 nM, 1.9 nM and 1.2 nM, respectively. For the same compound, the Papp A→B at 2 h, 10 μM at BCRP was determined as 21.1 ×10⁻⁶ cm/s; at MDR1, 15.2 ×10⁻⁶ cm/s. The Papp B→A at 2 h, 10 μM on BCRP is 18.2 ×10⁻⁶ cm/s; on MDR1, 22.7 ×10⁻⁶ cm/s. In addition, the efflux ratio at 2 h, 10 μM at BCRP was determined as 0.87; at MDR1, 1.5. Moreover, the results for the IC50 on PARP2 and on PARP1 were greater than 100000 nM and 6.2 nM, respectively.
Turning to `CNC(=O)c1ccc(N2CCN(Cc3ccc4c5c(c(=O)[nH]c4c3F)CCO5)CC2)c(F)n1` [Example 9, 6-fluoro-5-[4-({6-fluoro-4-oxo-2H,3H,5H-furo[3,2-c]quinolin-7-yl}methyl)piperazin-1-yl]-N-methylpyridine-2-carboxamide], the EC50 in the data set on DLD-1 parental cells was greater than 30000 nM; with DLD-1 BRCA2(−/−) cells, 3.2 nM; in [1] it was 1.6 nM. Moreover, the Papp A→B at 2 h, 10 μM on BCRP was found to be 26.7 ×10⁻⁶ cm/s; on MDR1 it was 19.4 ×10⁻⁶ cm/s. Besides, the Papp B→A at 2 h, 10 μM at BCRP worked out at 24.3 ×10⁻⁶ cm/s; on MDR1 it was 31.4 ×10⁻⁶ cm/s. Besides, the “HLM Clh” value in data set [2] is less than 4 mL/min/kg. For the same compound, the “HHEP Clh” value in [3] was less than 3.3 mL/min/kg.
Regarding `CNC(=O)c1ccc(N2CCN(Cc3ccc4c([nH]c(=O)c5ccnn54)c3F)CC2)c(F)n1` [Example 1, 6-fluoro-5-[4-({6-fluoro-4-oxo-5H-pyrazolo[1,5-a]quinoxalin-7-yl}methyl)piperazin-1-yl]-N-methylpyridine-2-carboxamide], the EC50 is greater than 30000 nM with DLD-1 parental cells, 4.1 nM in the data set with DLD-1 BRCA2(−/−) cells and 2.9 nM in [1]. Also, the Papp A→B at 2 h, 10 μM came out at 21.7 ×10⁻⁶ cm/s on BCRP and 15.9 ×10⁻⁶ cm/s on MDR1. In addition, the Papp B→A at 2 h, 10 μM on BCRP was 20.4 ×10⁻⁶ cm/s; at MDR1 it was 29.6 ×10⁻⁶ cm/s. Further, the efflux ratio at 2 h, 10 μM on BCRP came to 0.95; at MDR1, 1.87.
For the compound `CNC(=O)c1ccc(N2CCN(Cc3ccc4c5c(c(=O)[nH]c4c3)CCO5)CC2)c(Cl)n1` [Comp. Ex. 2, 6-chloro-N-methyl-5-[4-({4-oxo-2H,3H,5H-furo[3,2-c]quinolin-7-yl}methyl)piperazin-1-yl]pyridine-2-carboxamide, reference compound], on MDR1, the Papp A→B at 2 h, 10 μM was 5.7 ×10⁻⁶ cm/s; the Papp B→A at 2 h, 10 μM was 29 ×10⁻⁶ cm/s; the efflux ratio at 2 h, 10 μM came out at 5.1. Besides, in data set [2], the “HLM Clh” value is listed as 4.2 mL/min/kg. This compound came in with an EC50 in the data set with DLD-1 BRCA2(−/−) cells of 1.7 nM. Also, the “HHEP Clh” value in data set [3] is given as 6.6 mL/min/kg. The same compound displayed a concentration for a half-maximal effect (EC50) in data set [1] of 0.7 nM.
